Experiments:
Experiment in all cases: Greenhouse experiment, post-emergence treatment
Conditions in all cases: post-emergence method, application rate 125 g/ha
SETFA = assay type: in vivo, Setaria faberi
Procedure: (§1) The seeds of the test plants were sown separately for each species. […] For this purpose, the test plants were either sown directly and grown in the same containers, or they were first grown separately as seedlings and transplanted into the test containers a few days prior to treatment. Depending on the species, the plants were kept at 10-25° C. or 20-35° C., respectively. The test period extended over 2 to 4 weeks. During this time, the plants were tended, and their response to the individual treatments was evaluated. Evaluation was carried out using a scale from 0 to 100. 100 means no emergence of the plants, or complete destruction of at least the aerial moieties, and 0 means no damage, or normal course of growth. A moderate herbicidal activity is given at values of at least 60, a good herbicidal activity is given at values of at least 70, and a very good herbicidal activity is given at values of at least 85. […] [table]

ELEIN = assay type: in vivo, Eleusine indica
Procedure: as §1

PHBPU = assay type: in vivo, Pharbitis purpurea
Procedure: as §1

CC(C)(F)c1nc(N)nc(Nc2c(F)cccc2Oc2cc(Cl)cc(OC(F)(F)F)c2)n1 [Example 64] was tested, and the “herbicidal activity against SETFA” value (SETFA) was “very good (a very good herbicidal activity is given at values of at least 85)”, the “herbicidal activity against ELEIN” value (ELEIN) was “very good (a very good herbicidal activity is given at values of at least 85)” and the “herbicidal activity against PHBPU” value (PHBPU) was “very good (a very good herbicidal activity is given at values of at least 85)”.
